From patent publication US11484536B2, “Method of treating metastatic cancer in a subject with a protein inhibitor” (City University of Hong Kong, priority 2020, dated 2022)
Entries after “also recorded” stand apart in the source; their conditions may differ.

Tests used:
[1] = system: 4T1, 4T07, and MDA-MB-231 cells; experiment: Trans-well migration assay; type: cell-based, human or mouse; conditions: indicated concentrations, 18 h, compared with V1
Experimental: FIG. 2A is a series of microscopic images and bar charts showing the migration of 4T1, 4T07, and MDA-MB-231 cells in transwell plates in the presence or absence of V1 (1 μM). FIG. 2B is a series of microscopic images and bar charts showing the invasion of 4T1, 4T07, and MDA-MB-231 cells in invasion chambers in the presence or absence of V1 (1 μM). FIG. 2C is a series of optical images and a bar chart showing the closure of a scratch-wound plated with 4T1 cells, treated with or without V1 (1 μM), after 0, 24, and 48 h. FIG. 2D is a series of optical images and a bar chart showing the closure of a scratch-wound plated with 4T07 cells, treated with or without V1 (1 μM), after 0, 24, and 48 h. FIG. 2E is a series of microscopic images showing the migration of 4T07 cells in transwell plates in the presence or absence of V1 or LA at indicated concentrations after 18 h. […]
In this example, the cytotoxicity and the anti-migration effects of V1 are compared with latrunculin A (LA), an F-actin destabilizer. […] The breast cancer cells were placed on the upper chamber of the transwell plates or invasion chambers coated with Matrigel in the presence or absence of V1, after 18 h of incubation, the cells at the lower chamber were stained with crystal violet and quantified. […]

HeLa cells [2] = experiment: LC3-II and p62 accumulation immunoblot; type: cell-based
Experimental: FIG. 12A is a synthetic scheme of a V1 analog carrying a clickable terminal alkynyl group. FIG. 12B is a synthetic scheme of azide-biotin. FIG. 12C is a synthetic scheme of Vi-biotin.
FIG. 23A is a schematic diagram illustrating the structure of 6J-1.
Subsequently, biotin-V1 was administered to HeLa cell extracts, the V1 binding complex was purified with streptavidin beads, and subjected to mass analysis. There were 85 potential V1 binding proteins identified in three independent experiments with high fidelity (FIG. 13A). Among them, 32 proteins were clustered in endocytosis and vesicle-mediated transport pathways using KOBAS online software.
In this example, a 6-morpholino-1,3,5-triazine derivative, 6J-1 was synthesized and used as an exemplary example to illustrate the inhibitory effect of 6-morpholino-1,3,5-triazine derivatives on endosomal trafficking and metastasis. As illustrated above, the induction of accumulation of LC3-II and p62 by biotin-V1 would accompany with the induction of vacuoles as well as the inhibition of transferrin degradation (see Example 4).

[3] = system: HeLa, A549, or MDA-MB-231 cells; experiment: Cytotoxicity of 6J-1 by PI staining and living cell number; type: cell-based
Experimental: FIG. 24A is a bar chart showing the percentage of cell death of HeLa cells treated with or without 6J-1 at the indicated concentrations for 24 or 48 h. FIG. 24B is a bar chart showing the percentage of cell death of A549 cells treated with or without 6J-1 at the indicated concentrations for 24 or 48 h. FIG. 24C is a bar chart showing the percentage of cell death of MDA-MB-231 cells treated with or without 6J-1 at the indicated concentrations for 24 or 48 h.
FIG. 25A is a line chart showing the number of HeLa cells treated with or without 6J-1 at the indicated concentrations for 0, 24 or 48 h. FIG. 25B is a line chart showing the number of MDA-MB-231 cells treated with or without 6J-1 at the indicated concentrations for 0, 24 or 48 h. FIG. 25C is a line chart showing the number of A549 cells treated with or without 6J-1 at the indicated concentrations for 0, 24 or 48 h.
The cytotoxicity of 6J-1 on different cancer cell lines has been examined by PI staining, and the cell number of living cells was quantified as well. As shown in FIGS. 24A-24C and 25A-25C, 6J-1 is non-cytotoxic to HeLa, A549, or MDA-MB-231 cells at concentrations of 0.01-10 μM. Even at a concentration of as high as 100 μM, there were over 80% of the 6J-1-treated cells remained alive.

[4] = system: 4T1, A549, HCCLM3, and HepG2; experiment: Colony formation of cancer cell lines; type: cell-based; conditions: indicated concentrations
Description: FIG. 26 is a series of optical images showing colony formation of 4T1, A549, HCCLM3, and HepG2 cells treated with or without 6J-1 at the indicated concentrations.
(§1) The inhibitory effect of 6J-1 on colony formation of several cancer cell lines, including 4T1, A549, HCCLM3, and HepG2 has been examined. […] Overall, 6J-1 is found to be as potent as V1.

A549 and HepG2 cells = experiment: Migration of cancer cells treated with 6J-1; type: cell-based; conditions: 6J-1 1 μM
Experimental: FIG. 27A is a pair of microscopic images showing the migration of A549 cells treated with or without 6J-1 (1 μM). FIG. 27B is a series of microscopic images showing the migration of HepG2 cells treated with or without V1 (1 μM) or 6J-1 (1 μM).
as §1

A549 cells = experiment: Invasion of cancer cells treated with 6J-1; type: cell-based; conditions: 6J-1 1 μM
Experimental: FIG. 28 is a pair of microscopic images showing the invasion of A549 cells treated with or without 6J-1 (1 μM).
as §1

[5] = system: 4T1 mouse breast cancer cells; experiment: Spontaneous cancer mouse model, fat pad injection of 4T1 cells into nude mice; conditions: 6J-1 30 mg/kg, oral, every day, 4 weeks
Experimental: FIG. 5A is a schematic diagram showing a method for determining the anti-metastatic activity of V1 in female nude mice with their fat pads injected with 4T1 cells, where V1 is administered to the mice via an oral gauge. FIG. 5B is a series of optical images showing the excised lungs of the mice treated with a buffer or V1 (15 or 30 mg/kg, daily) via the oral gauge for 4 weeks. FIG. 5C is a line plot showing the number of tumor nodules in the excised lungs against different concentrations of V1.
FIG. 29A is a series of optical images showing the excised lungs of female nude mice treated with a buffer or 6J-1 (30 mg/kg, oral delivery, daily) for 4 weeks. FIG. 29B is a line plot showing the number of tumor nodules in the excised lungs of the mice of FIG. 29A.
First, we studied V1's anti-metastatic effects in a spontaneous cancer mouse model by fat pad injecting 4T1 mouse breast cancer cells into nude mice (FIG. 5A). After tumors were palpable (˜5 mm, around day 9), the mice were randomly divided into three groups (six mice per group) orally treated with or without V1 (15 or 30 mg/ml) every day. After 4 weeks, the mice were sacrificed; the primary tumors and lungs of the mice were harvested for analysis.

HeLa cells [6] = experiment: Focal adhesion dynamics after nocodazole release (Vinculin puncta); type: cell-based; conditions: nocodazole treatment
Description: The indicated time points represent at which NOC was removed from the HeLa cells, followed by staining the cells with anti-Vinculin antibody and Phalloidin. […] The indicated time points of FIGS. 3B and 3C represent at which the HeLa cells were released from cold arrest, followed by being stained with antibodies against EEA1 or LAMP1.
Focal adhesion (FA) dynamics is a key process during cell migration and therefore the effects of V1 treatment on spatiotemporal regulation of FA dynamics have been assessed. HeLa cells were plated on cover slides at 24-well plates and treated with nocodazole (NOC) in the presence or absence of V1 (1 μM). At indicated times, after removing NOC, the cells were stained with anti-Vinculin antibody and Phalloidin, and the Vinculin puncta were quantified.

[7] = biological target: T1, recombinant CapZβ-CapZα heterodimer (Homo sapiens, UniProt P47756); experiment: Streptavidin pulldown with purified recombinant CapZα and CapZβ; type: binding; conditions: in vitro
T1 construct: His6
Experimental: FIG. 14D is a pair of immunoblots of purified CapZα and CapZβ recombinant proteins after incubated with Biotin-V1. FIG. 14E is a CapZβ immunoblot of lysate of HeLa cells treated with biotin or Biotin-V1.
The expression of these genes in HeLa cells were knocked out by CRISPR/Cas9 to assess whether the ability of V1 inducing vacuole formation or endocytosis arrest would be affected by these knockdowns. […] CapZα and CapZβ are the α and β subunits of the actin capping protein (CP), also called CapZ, and the CapZβ-CapZα heterodimeric complex normally binds to the barbed ends of actin filaments to prevent further filament elongation. To investigate whether biotin-V1 or biotin alone would be able to bind with the CapZβ-CapZα heterodimeric complex, the inventors have incubated biotin or bioin-V1 with purified His6-CapZα and His6-CapZβ recombinant proteins, or purified CapZα and CapZβ proteins, followed by subjecting the mixture to streptavidin pulldown. The streptavidin pulldowns were analyzed by His6 immunoblotting, coomassie blue staining or CapZβ immunoblotting. […] In addition, in another experiment, HeLa cells were treated with biotin or biotin-V1 and the lysate thereof was incubated with streptavidin beads, followed by subjecting to streptavidin pulldown.

C/C1=C/C(=O)O[C@@H]2C[C@@H](CC[C@H](C)/C=C\C=C\CC1)O[C@@](O)([C@@H]1CSC(=O)N1)C2 [LA, latrunculin A]
migration of 4T07 cells [1]: much lower effect on the migration of 4T07 cells at similar concentrations of V1

OCCOCCN(c1ccccc1)c1nc(N/N=C/c2cccc(I)c2)nc(N2CCOCC2)n1 [6J-1]
accumulation of LC3-II and p62 (HeLa cells [2]): highly comparable result as V1; also recorded: induces comparable accumulation of LC3-II and p62 in HeLa cells as V1
treated cells remained alive ([3]; 100 μM): over 80%
cytotoxicity ([3]; 0.01-10 μM, 24 or 48 h): non-cytotoxic
colony formation [4]: inhibitory on the colony formation of all the aforementioned cell lines in a dose dependent manner
migration of cancer cells (A549 and HepG2 cells): capable of inhibiting migration and invasion of cancer cells
invasion of cancer cells (A549 cells): capable of inhibiting migration and invasion of cancer cells
metastasis of 4T1 cells (tumor nodules in the lungs) [5]: significantly inhibited the metastasis of 4T1 cells

COC(=O)Nc1nc2ccc(C(=O)c3cccs3)cc2[nH]1 [NOC, nocodazole]
effect on microtubules and formation of FAs (HeLa cells [6]): depolymerized the microtubules and stabilized the formation of FAs

O=C(O)CCCC[C@@H]1SC[C@@H]2NC(=O)N[C@@H]21 [biotin]
interaction with recombinant CapZβ-CapZα heterodimer [7]: not biotin alone
